pIC50: −log10 of the molar value. Counter-ions that a name gives are not always drawn. The source made the active and inactive calls. The rule behind the calls is not given here.
Columns and labels:
[1] = molecular target: T1, BuChE (butyrylcholinesterase) (Homo sapiens, UniProt P06276); assay: Inhibition of BuChE (unknown origin) at 20 nM relative to control
Cholinesterase [2] = molecular target: T2, Cholinesterase (Homo sapiens, UniProt P06276); assay: (§1) Inhibition of BuChE (unknown origin) at 1 uM relative to control; settings: 1 µM
T2 sequence (P06276 whole entry): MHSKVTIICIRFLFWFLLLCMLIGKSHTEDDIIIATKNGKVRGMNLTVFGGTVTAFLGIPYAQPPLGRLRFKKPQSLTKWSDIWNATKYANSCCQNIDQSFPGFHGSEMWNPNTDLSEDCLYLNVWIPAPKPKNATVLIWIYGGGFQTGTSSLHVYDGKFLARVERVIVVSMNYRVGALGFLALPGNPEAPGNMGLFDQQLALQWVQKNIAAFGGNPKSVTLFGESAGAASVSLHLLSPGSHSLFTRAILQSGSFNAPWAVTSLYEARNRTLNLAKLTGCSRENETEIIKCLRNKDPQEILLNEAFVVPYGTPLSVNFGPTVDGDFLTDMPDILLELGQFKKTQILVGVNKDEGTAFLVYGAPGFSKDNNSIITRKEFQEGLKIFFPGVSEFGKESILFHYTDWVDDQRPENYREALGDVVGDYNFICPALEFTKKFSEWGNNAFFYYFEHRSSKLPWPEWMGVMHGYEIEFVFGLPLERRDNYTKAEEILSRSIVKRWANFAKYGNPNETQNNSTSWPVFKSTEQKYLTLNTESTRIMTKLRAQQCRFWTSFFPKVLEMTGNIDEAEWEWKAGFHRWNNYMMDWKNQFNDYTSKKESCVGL

Acetylcholinesterase [3] = molecular target: T3, Acetylcholinesterase (Homo sapiens, UniProt P22303); assay: Inhibition of AChE (unknown origin) using acetylthiocholine iodide as substrate by Ellman's method
T3 sequence (P22303 whole entry): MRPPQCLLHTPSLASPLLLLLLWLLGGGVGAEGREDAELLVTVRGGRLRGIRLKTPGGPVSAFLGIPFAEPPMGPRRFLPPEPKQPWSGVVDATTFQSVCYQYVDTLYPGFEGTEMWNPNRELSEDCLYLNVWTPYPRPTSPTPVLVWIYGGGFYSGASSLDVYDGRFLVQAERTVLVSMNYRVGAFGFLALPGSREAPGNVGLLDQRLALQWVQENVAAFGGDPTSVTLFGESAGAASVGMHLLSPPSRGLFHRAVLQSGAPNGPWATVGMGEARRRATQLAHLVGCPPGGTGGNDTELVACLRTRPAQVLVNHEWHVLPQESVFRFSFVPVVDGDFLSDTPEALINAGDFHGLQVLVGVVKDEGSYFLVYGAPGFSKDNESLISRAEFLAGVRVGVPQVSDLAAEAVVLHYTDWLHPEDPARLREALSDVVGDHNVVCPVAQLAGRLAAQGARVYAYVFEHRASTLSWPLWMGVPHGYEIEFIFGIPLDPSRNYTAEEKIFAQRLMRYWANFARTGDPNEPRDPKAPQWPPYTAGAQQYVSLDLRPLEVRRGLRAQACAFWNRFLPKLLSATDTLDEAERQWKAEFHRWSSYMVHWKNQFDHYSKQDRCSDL

Acetylcholinesterase [4] = molecular target: T3, Acetylcholinesterase; assay: Non-competitive inhibition of AChE (unknown origin) at 100 to 200 nM using acetylthiocholine as substrate by Ellman's method based Lineweaver-Burk plot analysis
Cholinesterase [5] = molecular target: T2, Cholinesterase; assay: Inhibition of BuChE (unknown origin)
Homo sapiens = species: Homo sapiens; assay: Selectivity index, ratio of IC50 for BuChE (unknown origin) to IC50 for AChE (unknown origin) using acetylthiocholine iodide as substrate
[6] = molecular target: T1, BuChE (butyrylcholinesterase); assay: as §1
Acetylcholinesterase [7] = molecular target: T3, Acetylcholinesterase; assay: Inhibition of AChE (unknown origin) at 1 uM using acetylthiocholine iodide as substrate by Ellman's method relative to control

T1 sequence (P06276 whole entry): as the sequence (P06276 whole entry) above

Structure (SMILES) | inhibition (INH) (Cholinesterase [2]) | pIC50 (Acetylcholinesterase [3]) | inhibition at 1 µM [6] [%] | inhibition (Acetylcholinesterase [7]) | other results
Nc1c2c(nc3ccccc13)CCCC2 [TACRINE HYDROCHLORIDE] |  |  |  |  | inhibition at 0.02 µM [1]: 64.5%
O=C1CN(/N=C/c2ccc(-c3cccc([N+](=O)[O-])c3)o2)C(=O)N1CCC1CCN(Cc2ccccc2)CC1 | Not Active | 6.54 |  |  | 
O=C1CN(/N=C/c2ccc(-c3ccccc3[N+](=O)[O-])o2)C(=O)N1CCC1CCN(Cc2ccccc2)CC1 |  | 7.47 | 14.6 |  | inhibition (Acetylcholinesterase [4]): Active; pIC50 (Cholinesterase [5]): 5.35; Ratio IC50 (Homo sapiens): 130
COc1ccc(-c2ccc(/C=N/N3CC(=O)N(CCC4CCN(Cc5ccccc5)CC4)C3=O)o2)cc1 |  | 6.97 | 4.6 |  | 
COc1ccccc1-c1ccc(/C=N/N2CC(=O)N(CCC3CCN(Cc4ccccc4)CC3)C2=O)o1 |  | 7.04 | 1.6 |  | 
O=C1CN(/N=C/c2ccc(-c3ccc([N+](=O)[O-])cc3)o2)C(=O)N1CCN1CCN(Cc2ccccc2)CC1 | Not Active | 6.70 |  | 67.9% | 
O=C1CN(/N=C/c2ccc(-c3ccc([N+](=O)[O-])cc3)o2)C(=O)N1CC1CCN(Cc2ccccc2)CC1 |  |  |  | inactive | 
O=C1CN(/N=C/c2ccc(-c3ccc([N+](=O)[O-])cc3)o2)C(=O)N1 |  |  |  | inactive | 
O=C1CN(/N=C/c2ccc(-c3ccc([N+](=O)[O-])cc3)o2)C(=O)N1CCC1CCN(Cc2ccccc2)CC1 | Not Active | 7.33 |  | 91.3% | 
COc1cccc(-c2ccc(/C=N/N3CC(=O)N(CCC4CCN(Cc5ccccc5)CC4)C3=O)o2)c1 |  | 7.33 | 3.8 |  | 
